# From PMC10746103, “Development of a HPLC-MS/MS Method to Assess the Pharmacokinetics and Tumour Distribution of the Dimethylarginine Dimethylaminohydrolase 1 Inhibitors ZST316 and L-257 in a Xenograft Model of Triple-Negative Breast Cancer in Mice” (Molecules, 2023)
# Values joined by “and” are separate entries in the source; they are usually repeats but may differ in a detail not shown here. Equal entries are not always repeated. “Also recorded” adds a separate entry of the source. Where two headings read alike, the source gives them in different places.
# What was measured:
# [1] = set-up: method as in PMID 35164277; settings: four-week-old FVB mice; oral, intravenous and intraperitoneal administration; cited from earlier work
# [2] = Stability of ZST316 and L-257 in frozen plasma; assay type: in vitro ADME, mice; settings: for Mean found value, Stability −20 °C / Accuracy (%), Stability −20 °C: plasma QC, one month at −20 °C; for Mean found value, Stability −20 °C: n=3; for Accuracy (%), Stability −20 °C: percent of nominal
# Procedure: The stability of ZST316 and L-257 in plasma was assessed by analysing QC samples containing both compounds after prolonged storage in the same conditions of the study samples.
# Stability was determined by analysing 3 QCs per concentration level immediately after the preparation, and 3 QCs per concentration level after one month of storage at −20 °C. The analytes were considered stable at each QC concentration when the freshly prepared samples and the stability test samples differed by no more than 15% from the nominal concentrations.
# [3] = Tolerability of chronic intraperitoneal ZST316 treatment; assay type: in vivo; settings: ZST316 30 mg/Kg i.p. daily for five days
# Procedure: (§1) Two ×10^6 (in 10 μL) MDA-MB-231 TNBC cells were transplanted into the mammary fat pad. Tumour growth was regularly monitored with a calliper and treatment with ZST316 was given when the tumour volume reached 400–500 mm^3. Mice received either a single dose (acute treatment) or a daily dose of ZST316 30 mg/Kg intraperitoneally for five days (chronic treatment).
# [4] = target: DDAH1; settings: cited from earlier work
# [5] = Plasma pharmacokinetics of ZST316 and L-257 after intraperitoneal ZST316 in MDA-MB-231 xenograft mice (HPLC-MS/MS); assay type: in vivo, SCID mice
# Procedure: (§2) Six-week-old female severe combined immunodeficiency disease (SCID) mice (n = 24; Charles River Laboratories Italia S.r.L., Calco, Lecco, Italy), were housed under rigorous standards and handled under pathogen-free conditions in the Animal Care Facilities of the Mario Negri Institute for Pharmacological Research (Milan, Italy).
# as §1
# (§3) Plasma and tumour tissue (n = 3 mice/each time point) were sampled at 1, 8 and 24 h after treatment (on day 5 for the chronic treatment). To collect plasma, mice were anesthetized by isoflurane, the blood was drained from the retro-orbital plexus into heparinised tubes and centrifuged for 10 min at 4000× g at 4 °C. Tumours were collected and immediately frozen. Plasma and tumour samples were stored at −20 °C until analysis.
# To assay ZST316 and L-257, 10 μL of IS (ZST152 WS: 500 ng/mL) were added to 100 μL of study plasma samples, standards, and QCs in a polypropylene tube. The samples were then added with 10 μL of NH4COOH 50 mM, mixed and added with 400 μL CH3OH:0.1% HCOOH, vortex mixed again and centrifuged at 13,200 rpm for 10 min at 4 °C. The supernatant was transferred to a 1.5 mL Eppendorf tube, dried under nitrogen flow and reconstituted with 100 μL of mobile phase (MP) A:B (1:1, v/v). Finally, the samples were centrifuged at 13,200 rpm for 10 min at 4 °C and the supernatant transferred into vials for HPLC-MS/MS analysis.
# (§4) Reversed-phase chromatography was performed under gradient conditions with separation on a HILIC column, C18, 3 μm, 100 A, 2.1 × 150 mm, Waters (Milford, MA, USA), coupled with a 3 μm, 3.9 × 5.0 mm guard column of the same material at the flow rate of 0.2 mL/min. Gradient features were: 10% mobile phase (MP) A (NH4HCO2 10 mM, 10% CH3CN, 0.1% HCOOH) and 90% MP B (CH3CN, 0.1% HCOOH) as initial constant condition; then to 90% MP A in 6 min and constant condition for 1.5 min. Return to start condition in 0.5 min and conditioning for 5.5 min. Total run time: 13.5 min. Analyte detection and quantification were performed using tandem mass spectrometry (MS/MS) operating in positive ionization mode as previously reported for ZST316 and ZST152 [31].
# [6] = Tumour distribution of ZST316 and L-257 after intraperitoneal ZST316 in MDA-MB-231 TNBC xenograft (HPLC-MS/MS); assay type: in vivo, SCID mice; settings: for time intra-tumour concentration remained above the IC50 and Ki values for DDAH1 inhibition: estimated
# Procedure: as §2, §1, §3
# Control MDA-MB-231 TNBC cell tumours were homogenized with NH4COOH 50 mM (1:4, w:v). The homogenate (90 μL) was spiked with 5 μL of ZST316 and L-257 working solutions prepared in the range of 100–10,000 ng/mL generating seven tumour calibration standards in the range 25–5000 ng/g. The calibration curve included also a blank and a zero blank standard plasma sample (processed with IS). To prepare QC samples, 90 μL of the homogenate was mixed with an appropriate amount of QC working solutions to obtain QC plasma samples at the nominal concentration of 75, 375, and 1250 ng/g.
# The procedure was similar to that described for plasma in Section 3.3.2.
# as §4
# [7] = acute (single dose) ZST316 30 mg/Kg i.p., 1 h
# [8] = acute ZST316 30 mg/Kg i.p., 1 h, 30 mg/kg
# [9] = acute ZST316 30 mg/Kg i.p., 8 h, 30 mg/kg
# [10] = acute ZST316 30 mg/Kg i.p., 8 h, n=3, 30 mg/kg
# [11] = acute ZST316 30 mg/Kg i.p., 24 h, 30 mg/kg
# [12] = acute ZST316 30 mg/Kg i.p., approximately estimated due to limited time points
# [13] = chronic (five-day) ZST316 30 mg/Kg i.p. daily, 1 h
# [14] = chronic (five-day) ZST316 30 mg/Kg i.p. daily, 24 h
# [15] = chronic ZST316 30 mg/Kg i.p. daily
# [16] = chronic ZST316 30 mg/Kg i.p. daily, day 5, 1 h, 30 mg/kg
# [17] = chronic ZST316 30 mg/Kg i.p. daily, day 5, 8 h, 30 mg/kg
# [18] = chronic ZST316 30 mg/Kg i.p. daily, day 5, 8 h, n=3, 30 mg/kg
# [19] = chronic ZST316 30 mg/Kg i.p. daily, day 5, 24 h, 30 mg/kg
# [20] = chronic ZST316 30 mg/Kg i.p. daily, approximately estimated due to limited time points
# [21] = range over acute and chronic treatment
smiles,measurement,setting,value
COCCNC(N)=NCCC[C@H](N)C(=O)NS(C)(=O)=O [ZST316],tolerability,[1],excellent tolerability
same,stability in frozen plasma,[2]; at least one month at −20 °C,stable
same,"Mean found value, Stability −20 °C",[2]; actual value 15.00 ng/mL,14.3 ng/mL
same,"Accuracy (%), Stability −20 °C",[2]; actual value 15.00 ng/mL,95.4%
same,"Mean found value, Stability −20 °C",[2]; actual value 75.00 ng/mL,72.4 ng/mL
same,"Accuracy (%), Stability −20 °C",[2]; actual value 75.00 ng/mL,96.5%
same,"Mean found value, Stability −20 °C",[2]; actual value 250.00 ng/mL,240.0 ng/mL
same,"Accuracy (%), Stability −20 °C",[2]; actual value 250.00 ng/mL,96.0%
same,tolerability / signs of toxicity,[3],"well tolerated, and no signs of toxicity were recorded"
same,Ki expressed as concentration,"[4]; equivalent of 261 nM, personal data",0.0803 µg/mL
same,Ki,[4]; original value,1000 nM
same,Ki,"[4]; revised using a more performant assay, personal data",261 nM
same,accumulation in plasma and tumour during chronic treatment,"[5]; ZST316 30 mg/Kg i.p. daily for five days, day 5 vs day 1, 30 mg/kg",without accumulation; also recorded: No accumulation
same,mean plasma concentration,[5]; [7],2.79 µg/mL
same,mean plasma concentration,"[5]; acute (single dose) ZST316 30 mg/Kg i.p., 24 h, 30 mg/kg",0.05 µg/mL and 0.04 µg/mL
same,Cmax,[5]; acute ZST316 30 mg/Kg i.p.,9.03 µM
same,Cmax plasma,[5]; acute ZST316 30 mg/Kg i.p.,2790 ng/mL
same,Plasma AUC1–24 h,[5]; acute ZST316 30 mg/Kg i.p.,0.050
same,Plasma AUC1–24 h,[5]; acute ZST316 30 mg/Kg i.p. (day 1),15.3 µg·h/mL
same,"plasma concentration, individual mice",[5]; [8],3000 ng/mL and 2150 ng/mL and 3210 ng/mL and 9.70 µM and 6.95 µM and 10.38 µM
same,"plasma concentration, individual mice",[5]; [9],162 ng/mL and 147 ng/mL and 0.38 µM and 0.52 µM and 0.48 µM and 119 ng/mL
same,mean plasma concentration,[5]; [10],143 ng/mL and 0.46 μM
same,"plasma concentration, individual mice",[5]; [11],64.2 ng/mL and 53.7 ng/mL and 25 ng/mL and 0.21 µM and 0.17 µM and 0.08 µM
same,half-life plasma,[5]; [12],4.4 h
same,mean plasma concentration,[5]; [13],2.22 µg/mL
same,mean plasma concentration,[5]; [14],0.12 µg/mL
same,Cmax,[5]; [15],7.18 µM
same,Cmax plasma,[5]; [15],2220 ng/mL
same,Plasma AUC1–24 h,[5]; [15],0.040
same,Plasma AUC1–24 h,[5]; chronic ZST316 30 mg/Kg i.p. daily (day 5),12.4 µg·h/mL
same,"plasma concentration, individual mice",[5]; [16],2440 ng/mL and 2030 ng/mL and 2200 ng/mL and 7.89 µM and 6.57 µM and 7.12 µM
same,"plasma concentration, individual mice",[5]; [17],81.7 ng/mL and 54.7 ng/mL and 41.8 ng/mL and 0.26 µM and 0.18 µM and 0.14 µM
same,mean plasma concentration,[5]; [18],59.4 ng/mL and 0.19 μM
same,"plasma concentration, individual mice",[5]; [19],101 ng/mL and 173 ng/mL and 86.3 ng/mL and 0.33 µM and 0.56 µM and 0.28 µM
same,half-life plasma,[5]; [20],7.1 h
same,half-life plasma,[5]; [21],4.4 to 7.1 h
same,measured concentration in unknown study plasma sample (Figure 2),"[5]; representative chromatogram, sample taken at 1 h after acute treatment (b8)",2200 ng/mL
same,mean intra-tumour concentration,[6]; [7],2.0 µg/g
same,mean intra-tumour concentration,"[6]; acute (single dose) ZST316 30 mg/Kg i.p., 24 h",0.04 µg/g
same,tumour AUC,[6]; acute ZST316 30 mg/Kg i.p.,11.4 µg·h/g
same,Cmax tumour,"[6]; acute ZST316 30 mg/Kg i.p., 30 mg/kg",2.00 μg/g and 6.47 μM
same,"tumour concentration, individual mice",[6]; [8],2470 ng/g and 1210 ng/g and 2320 ng/g and 7.99 µM and 3.91 µM and 7.50 µM
same,"tumour concentration, individual mice",[6]; [9],109 ng/g and 173 ng/g and 0.48 µM and 0.35 µM and 0.56 µM and 149 ng/g
same,mean tumour concentration,[6]; [10],144 ng/g and 0.46 μM
same,"tumour concentration, individual mice",[6]; [11],37.3 ng/g and 32.2 ng/g and 49.0 ng/g and 0.12 µM and 0.10 µM and 0.16 µM
same,half-life tumour,[6]; [12],4.5 h
same,time intra-tumour concentration remained above the IC50 and Ki values for DDAH1 inhibition,[6]; after acute ZST316 treatment,15.5 h
same,time intra-tumour concentration remained above the IC50 and Ki values for DDAH1 inhibition,[6]; after chronic ZST316 treatment,16.5 h
same,mean intra-tumour concentration,[6]; [13],2.09 µg/g
same,mean intra-tumour concentration,[6]; [14],0.06 µg/g
same,tumour AUC,[6]; [15],11.8 µg·h/g
same,"tumour concentration, individual mice",[6]; [16],2490 ng/g and 1750 ng/g and 2020 ng/g and 8.05 µM and 5.66 µM and 6.53 µM
same,"tumour concentration, individual mice",[6]; [17],110 ng/g and 146 ng/g and 0.39 µM and 0.36 µM and 0.47 µM and 120 ng/g
same,mean tumour concentration,[6]; [18],125 ng/g and 0.41 μM
same,mean tumour concentration,"[6]; chronic ZST316 30 mg/Kg i.p. daily, day 5, 24 h",57.0 ng/g
same,"tumour concentration, individual mice",[6]; [19],37.8 ng/g and 108 ng/g and 25.2 ng/g and 0.12 µM and 0.35 µM and 0.08 µM
same,mean tumour concentration,"[6]; chronic ZST316 30 mg/Kg i.p. daily, day 5, 24 h, n=3",0.18 µM
same,Cmax tumour,"[6]; chronic ZST316 30 mg/Kg i.p. daily, 30 mg/kg",2.09 μg/g and 6.76 μM
same,half-life tumour,[6]; [20],5.0 h
same,half-life tumour,[6]; [21],4.5 to 5.0 h
same,measured concentration in unknown study tumour sample (Figure 3),"[6]; representative chromatogram, sample taken at 24 h after acute treatment (b8)",37.3 ng/g
